Source: PubChem BioAssay (NCI)
Values joined by “and” are separate entries in the source; they are usually repeats but may differ in a detail not shown here. Identical values can stand only once.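 Interpolation was linear, between the two tested concentrations surrounding the appropriate level; five concentrations were tested over 48 hours in 96-well plates. GI50: concentration for 50% inhibition of growth. TGI: total growth inhibition.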

Columns and labels:
Experiment in all cases: NCI tumour cell line growth inhibition, 48 h
K-562 leukemia = tested on: K-562 leukemia
SF-539 CNS = tested on: SF-539 CNS
SW-620 colon = tested on: SW-620 colon
T-47D breast = tested on: T-47D breast
RXF 393 renal = tested on: RXF 393 renal
OVCAR-5 ovarian = tested on: OVCAR-5 ovarian
COLO 205 colon = tested on: COLO 205 colon
HCC-2998 colon = tested on: HCC-2998 colon
SK-MEL-28 melanoma = tested on: SK-MEL-28 melanoma
EKVX NSCLC = tested on: EKVX NSCLC

| SMILES | GI50 (K-562 leukemia) | TGI (K-562 leukemia) | GI50 (SF-539 CNS) | TGI (SF-539 CNS) | GI50 (SW-620 colon) | TGI (SW-620 colon) | GI50 (T-47D breast) [µM] | TGI (T-47D breast) | GI50 (RXF 393 renal) | TGI (RXF 393 renal) | GI50 (OVCAR-5 ovarian) | TGI (OVCAR-5 ovarian) | GI50 (COLO 205 colon) | TGI (COLO 205 colon) | GI50 (HCC-2998 colon) | TGI (HCC-2998 colon) | GI50 (SK-MEL-28 melanoma) | TGI (SK-MEL-28 melanoma) | GI50 (EKVX NSCLC) | TGI (EKVX NSCLC) |
| --- | --- | --- | --- | --- | --- | --- | --- | --- | --- | --- | --- | --- | --- | --- | --- | --- | --- | --- | --- | --- |
| COc1cc2cc(Oc3ccc(NC(=O)c4cccc(C(F)(F)F)c4)cc3)c(C)nc2cc1OC | 4.25 µM | > 100 µM | 8.35 µM | > 100 µM | 10.2 µM | > 100 µM | 3.23 | > 100 µM | 6.07 µM | > 100 µM | > 100 µM | > 100 µM | 4.65 µM | > 100 µM | 8.03 µM | > 100 µM | 6.61 µM | > 100 µM | 4.39 µM | > 100 µM |
| N/C(=N\OC(=O)c1ccccc1)C(C(=O)NOC(=O)c1ccccc1)C1CCCCC1 (stereo not drawn) | 3.08 µM | 10.6 µM | 7.22 µM | 20.1 µM | 11.5 µM | 27.7 µM | 7.57 | 28.2 µM | 8.59 µM | 65.1 µM | 14.6 µM | 28.2 µM | 11.6 µM | 26.8 µM | 13.5 µM | 27.2 µM | 16.2 µM | 50.7 µM | 6.1 µM | 20.9 µM |
| CC1=C(C(=O)NC2CCCCC2)CC(C(=O)NC2CCCCC2)=C(C)N1 | – | > 100 µM | – | > 100 µM | – | > 100 µM | – | > 100 µM | – | > 100 µM | – | > 100 µM | – | > 100 µM | – | > 100 µM | – | > 100 µM | – | > 100 µM |
| COC(=O)c1ccc2c(c1)C(NC(C)=O)CCc1cc(OC)c(OC)c(OC)c1-2 (stereo not drawn) | – | 28.1 µM | – | 0.056 µM | – | > 100 µM | – | > 100 µM | – | 6.65 µM | – | > 95.9 µM | – | 0.0194 µM | – | 0.706 µM | – | > 100 µM | – | > 100 µM |
| CC1(C)N=C(N)N=C(N)N1c1ccc(CCc2ccccc2)c(Cl)c1 | 0.0323 µM | 14.6 µM | 0.131 µM | 12.4 µM | 0.0388 µM | 13.8 µM | 0.698 | 13 µM | 0.829 µM | 17.6 µM | 0.19 µM | 19.7 µM | 0.0694 µM | 6.83 µM | 0.361 µM | 13.3 µM | 0.391 µM | 15.9 µM | – | – |
| COC(=O)C1=C(OC(=O)c2ccc(Cl)cc2)C(C(=O)OC)[C@@]2(O)[C@@H](C(=O)OC)C(c3ccccc3C(F)(F)F)C[C@@H]1[C@@H]2C(=O)OC (stereo partly drawn) | 3.36 µM | > 100 µM | 5.13 µM | > 100 µM | 3.83 µM | 21.1 µM | 4.82 | > 100 µM | 2.14 µM | 5.43 µM | 54.2 µM | > 100 µM | 3.31 µM | > 100 µM | 5.54 µM | > 100 µM | 6.69 µM | > 100 µM | 8.1 µM | > 100 µM |
| CSc1ccc(/C=C2\CNC/C(=C\c3ccc(SC)cc3)C2=O)cc1 | 150 µg/mL | > 371 µM and 150 µg/mL | 15.2 µg/mL | 32.7 µM and 43.8 µg/mL | 150 µg/mL | > 371 µM and 150 µg/mL | – | > 371 µM | 74 µM and 10.8 µg/mL | 81.1 µM and 34.2 µg/mL | 150 µg/mL | > 371 µM and 150 µg/mL | 150 µg/mL | > 371 µM and 150 µg/mL | > 371 µM and 150 µg/mL | > 371 µM and 150 µg/mL | 150 µg/mL | > 371 µM and 150 µg/mL | 150 µg/mL | > 371 µM and 150 µg/mL |
| CC(O)CNC1=CC(=O)C(=O)c2ccccc21 (stereo not drawn) | – | > 100 µM | – | 38.5 µM | – | 40.1 µM | – | 45.2 µM | – | > 100 µM | – | 35.6 µM | – | 22 µM | – | 26.5 µM | – | 35 µM | – | 40.2 µM |
| Cc1cccc(NC(=O)c2sc3nc4c(cc3c2N)CCCC4)c1C | 0.238 µM | > 100 µM | 0.272 µM | 1.2 µM | 0.369 µM | > 100 µM | 0.505 | > 100 µM | 0.233 µM | 0.733 µM | 1.79 µM | > 100 µM | 0.344 µM | 27.6 µM | 1.59 µM | > 100 µM | > 48.4 µM | > 100 µM | 0.708 µM | > 100 µM |
| C=C1C(=O)O[C@@H]2C[C@@]3(C)CC(=O)C=C(C)[C@@H]3C[C@H]12 | – | – | – | 36.2 µM | – | 22.6 µM | – | 28.3 µM | – | 18.2 µM | – | 32.9 µM | – | 11.4 µM | – | 28.1 µM | – | 41.9 µM | – | 28.8 µM |
| CCc1nc(N)nc(N)c1-c1ccc([N+](=O)[O-])c(NCc2ccccc2)c1 | – | 20.7 µM | – | 39.3 µM | – | 42.9 µM | – | > 46.8 µM | – | 52.7 µM | – | > 100 µM | – | 35 µM | – | 36.7 µM | – | 35.1 µM | – | 41.6 µM |
| CNC(=O)Nc1ccc(-c2nc(N3CCOCC3)nc3c2cnn3C2CCOCC2)cc1 | 0.533 µM | > 100 µM | 0.205 µM | 1.36 µM | 0.332 µM | > 100 µM | 0.0419 | 0.341 µM | 0.14 µM | 0.812 µM | 0.194 µM | 1.36 µM | 0.247 µM | > 100 µM | 0.307 µM | > 100 µM | 0.164 µM | 2.22 µM | 0.18 µM | 2.42 µM |
| Clc1ccc(COC(Cn2ccnc2)c2ccc(Cl)cc2Cl)cc1 (stereo not drawn) | 2.8 µM | 10.2 µM and 23.9 µM and 21.1 µM | 4.6 µM | 16.4 µM and 38.3 µM and 29.4 µM | 2.96 µM | 13.3 µM and 27.4 µM and 29.2 µM | 2.26 | 8.76 µM and 23.4 µM and 19.9 µM | 2.01 µM | 6.78 µM and 31.7 µM and 29.1 µM | 4.24 µM | 16.8 µM and 24.4 µM and 28.1 µM | 1.84 µM | 3.97 µM and 24.6 µM and 22.5 µM | 2.72 µM | 10.5 µM and 29.6 µM and 30 µM | 4.66 µM | 16.6 µM and 34.6 µM and 30 µM | 2.91 µM | 13.9 µM and 25.5 µM and 27.5 µM |
| N#CC(C#N)SCc1ccccc1 | – | – | – | 13.1 µM | – | > 100 µM | – | > 100 µM | – | 79 µM | – | > 40.3 µM | – | > 33.2 µM | – | > 100 µM | – | > 100 µM | – | > 100 µM |
| CC(CO)[C@H]1OC(=O)C=C2[C@@]13O[C@@H]3[C@H]1OC(=O)[C@@]3(C)[C@H]4O[C@H]4C[C@@]2(C)[C@@H]13 (stereo partly drawn) | – | > 100 µM | – | – | – | > 100 µM | – | > 46.1 µM | – | 6.33 µM | – | > 87.9 µM | – | – | – | 8.58 µM | – | > 100 µM | – | 18.3 µM |
